In this assay the test system is alternative pathway mediated C9 deposition. The assay is described as follows: Inhibition of alternative pathway mediated C9 deposition (ELISA). The class given is biochemical, human. The settings on record: 5% serum, n=3, ND* = Not detected. As for the experimental part: For the C3 and C9 ELISAs, microtiter plates (MaxiSorp; Nunc) were incubated overnight at 4°C with 50 µL of a solution of in 75 mM sodium carbonate (pH 9.6) containing either 2.5 µg/mL aggregated human IgG (Sigma-Aldrich, Gillingham, UK) for CP or 20 µg/mL zymosan (Sigma-Aldrich, Gillingham, UK) for AP. As a negative control, wells were coated with 1% (w/v) bovine serum albumin (BSA)/PBS. Microtiter plates were washed four times with 250 µL of wash buffer (50 mM Tris-HCl), 150 mM NaCl and 0.1% Tween 20 (pH 8) between each step of the procedure. Wells were blocked using 250 µL of 1% (w/v) BSA/PBS for 2 hr at room temperature. […] Complement activation was assessed through detection of deposited complement activation factors using specific antibodies against C3b (rat anti-human C3d HM2198, Hycult, Uden, The Netherlands) and C9 (goat anti-human C9, A226, Complement Technologies Tyler, TX) at a 1:1000 dilution. Bound primary antibodies were detected with […]-conjugated goat anti-rat (ab97057, Abcam, Cambridge, UK) or rabbit anti-goat (P0449, Agilent Dako, Santa Clara, CA) secondary antibodies at a 1:1000 dilution. Bound HRP-conjugated antibodies were detected using TMB One solution (Eco-TEK – manufactured by Bio-TEK, Winooski, VT) with absorbance measured at 450 nm. […]
In general terms: In an ELISA, binding on a coated surface is turned into a signal by an enzyme label.

Bridges are numbered along the chain shown (N, C = ends). Where no end group is shown, it is not given here.

Consider “SVCPDGFDWGYGCAAGSSRFCTRHDWCCYDERADSHTYGFCTGNRVENLYFQ (disulfide 3-28, 13-21, 27-41) [K8]”, for which the “Average Emax” value (AP C9 deposition) stood at 73.3%. Further, the IC50 (AP, Mg-EGTA pH 7.3, zymosan plate, preincubated on ice 30 min, 60 min 37°C, read-out: Geomean IC50) was found to be 232 nM.

As a reminder, the IC50 is the concentration that inhibits the measured activity by half.

The values above are taken from article PMC7972453, “The allosteric modulation of complement C5 by knob domain peptides” (eLife, 2021).
